As a reminder, the DC50 is the concentration at which degradation of the target reaches its halfway point. One may read the IC50 as the concentration that gives 50% inhibition.

The text below walks through data of patent US11912682B2, “Isoindolinone compounds” (Monte Rosa Therapeutics, Inc., priority 2021, dated 2024).

Assay [1] has as its target T1, GSPT1 (Homo sapiens (Human), UniProt P15170+Q96SW2). The experiment in a line: immunofluorescence assay for GSPT1 degradation in CAL-51 cells (Example 4). It is filed as cell-based. Put shortly:
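CAL-51 cells on fibronectin-coated plates were treated 6 h with serial dilutions (30 μM to 0.1 nM), then fixed and immunostained for GSPT1 with DAPI and phalloidin counterstains. Per-cell mean GSPT1 intensity from high-content imaging, normalized to controls; DC50 by non-linear regression.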

The target of assay [2] is Full length wild-type cereblon CRBN (Homo sapiens (Human), UniProt Q96SW2). The experiment in a line: fluorescence polarization (FP) assay, cereblon binding. Conditions: read-out: rFP IC50. Put shortly:
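Full-length wild-type CRBN (80.0 nM as dispensed) preincubated 30 min at room temperature with compound in HEPES pH 8.0, NaCl, TCEP, 0.05% Tween 20.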
In general terms: Fluorescence polarisation rises when a labelled molecule tumbles more slowly, as on binding a larger partner.

In assay [3] the target is T1, GSPT1. The experiment in a line: immunofluorescence assay for GSPT1 degradation in CAL-51 cells (Example 10). It counts as cell-based. Conditions: read-out: IF Class (GSPT1 degradation DC50). How it is done:
The representative compounds were tested in an immunofluorescence assay for their activity to degrade GSPT1. […] Compounds were stored at 10 mM DMSO stocks. […] Cells were subsequently rinsed with PBS and fixed in 10% Formalin solution (50 μl, Sigma HT5011)) for 20 mins at room temperature. […] Following three further PBS washes, 50 μL blocking buffer (1% BSA, Sigma A4503, in PBS) was added for 45 min for signal-to noise reduction. Primary antibody (human GSPT1, Sigma HPA052488) was diluted in blocking buffer (dil.1/300, 35 μL/well) and incubated with the cells overnight at 4° C. […] After three final PBS washes, samples were conserved in 100 μL PBS in the dark, until measurement. Image acquisition was performed on the Operetta High-Content Imager (Perkin-Elmer). […] For the determination of GSPT1 DC50 values, a custom algorithm implemented in the PerkinElmer image analysis software Harmony-Acapella® was developed. After user-defined setting of adjustment parameters, the analysis was run identically without human intervention for all image fields. DAPI staining of the nuclei was used to determine the location of cells using standard nuclei detection modules. Segmentation artifacts were removed by threshold-based filters for area, roundness and intensity. The outline of the cells was determined analogously from the sum of the normalized, smoothed DAPI and Actin channel, starting from each nucleus. […] GSPT1 degradation (DC50) was calculated after normalization to controls and data import in CDD vault Database, using non-linear regression.

The mark [4] stands for this setting: 6 hours, read-out: Activity for GSPT1 degradation, Code (DC50).
Setting [5] is: GSPT1 degradation, read-out: DC50 value.

T1 sequence (P15170 whole entry): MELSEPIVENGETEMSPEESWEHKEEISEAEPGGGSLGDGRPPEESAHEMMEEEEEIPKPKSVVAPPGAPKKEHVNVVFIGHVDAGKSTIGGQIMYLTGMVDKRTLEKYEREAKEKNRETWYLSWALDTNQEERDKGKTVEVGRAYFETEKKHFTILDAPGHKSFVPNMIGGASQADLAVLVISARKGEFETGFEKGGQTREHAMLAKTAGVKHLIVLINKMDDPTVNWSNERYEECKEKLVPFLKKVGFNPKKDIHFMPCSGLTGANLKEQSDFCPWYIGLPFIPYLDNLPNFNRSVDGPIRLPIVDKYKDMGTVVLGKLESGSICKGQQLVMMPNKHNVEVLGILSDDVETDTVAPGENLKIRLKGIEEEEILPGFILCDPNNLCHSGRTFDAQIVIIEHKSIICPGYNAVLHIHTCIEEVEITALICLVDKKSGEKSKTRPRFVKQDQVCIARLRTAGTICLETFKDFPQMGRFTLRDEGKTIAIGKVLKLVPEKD
T1 sequence (Q96SW2 whole entry): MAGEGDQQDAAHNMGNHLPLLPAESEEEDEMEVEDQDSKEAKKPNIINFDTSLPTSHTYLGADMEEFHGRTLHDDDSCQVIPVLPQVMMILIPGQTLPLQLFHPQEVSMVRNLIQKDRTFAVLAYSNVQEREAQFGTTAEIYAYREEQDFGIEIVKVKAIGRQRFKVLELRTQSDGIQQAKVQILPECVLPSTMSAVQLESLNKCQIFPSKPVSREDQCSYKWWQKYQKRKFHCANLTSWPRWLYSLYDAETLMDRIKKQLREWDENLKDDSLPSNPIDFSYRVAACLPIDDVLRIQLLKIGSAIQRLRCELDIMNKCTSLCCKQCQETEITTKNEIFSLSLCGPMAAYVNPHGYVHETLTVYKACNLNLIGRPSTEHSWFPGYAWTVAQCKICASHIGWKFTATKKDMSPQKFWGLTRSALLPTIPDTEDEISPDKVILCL
T1 sequence (Q16531 2-1140 partner): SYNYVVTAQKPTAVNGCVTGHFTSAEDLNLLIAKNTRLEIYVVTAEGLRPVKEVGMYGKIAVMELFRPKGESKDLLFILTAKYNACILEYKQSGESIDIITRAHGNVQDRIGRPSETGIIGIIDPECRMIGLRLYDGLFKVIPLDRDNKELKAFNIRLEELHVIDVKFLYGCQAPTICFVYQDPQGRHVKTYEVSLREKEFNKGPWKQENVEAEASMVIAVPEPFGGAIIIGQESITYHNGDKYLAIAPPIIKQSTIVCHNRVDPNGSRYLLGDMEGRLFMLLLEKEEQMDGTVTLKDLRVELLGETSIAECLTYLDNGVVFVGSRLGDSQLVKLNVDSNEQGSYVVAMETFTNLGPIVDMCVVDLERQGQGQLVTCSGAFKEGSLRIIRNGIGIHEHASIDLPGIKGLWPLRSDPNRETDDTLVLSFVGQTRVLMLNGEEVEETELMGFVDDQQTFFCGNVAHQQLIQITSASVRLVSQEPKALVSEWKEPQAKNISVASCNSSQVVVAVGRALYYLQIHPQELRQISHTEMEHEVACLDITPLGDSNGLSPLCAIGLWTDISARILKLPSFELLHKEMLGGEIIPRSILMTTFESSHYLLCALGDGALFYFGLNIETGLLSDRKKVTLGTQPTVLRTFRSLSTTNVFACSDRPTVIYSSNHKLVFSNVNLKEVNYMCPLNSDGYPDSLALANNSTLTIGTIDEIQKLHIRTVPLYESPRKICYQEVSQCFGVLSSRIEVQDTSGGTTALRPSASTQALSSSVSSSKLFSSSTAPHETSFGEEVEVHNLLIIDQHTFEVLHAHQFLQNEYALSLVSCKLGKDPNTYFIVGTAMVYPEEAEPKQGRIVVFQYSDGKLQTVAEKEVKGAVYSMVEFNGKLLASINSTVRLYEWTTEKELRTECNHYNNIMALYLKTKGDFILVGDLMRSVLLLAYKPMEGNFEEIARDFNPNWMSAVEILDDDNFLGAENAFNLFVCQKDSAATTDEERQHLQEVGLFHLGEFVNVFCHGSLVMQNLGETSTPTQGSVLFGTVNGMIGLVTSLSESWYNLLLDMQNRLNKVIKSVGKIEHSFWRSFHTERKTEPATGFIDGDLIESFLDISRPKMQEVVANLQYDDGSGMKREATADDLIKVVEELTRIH
Sequence of Full length wild-type cereblon CRBN (Q96SW2 whole entry): as the sequence (Q96SW2 whole entry) above

Regarding `O=C1CCC(N2Cc3ccc(COC(=O)Nc4ccc(OC(F)(F)F)cc4)cc3C2=O)C(=O)N1` (centres unmarked) [Compound 154, (2-(2,6-dioxopiperidin-3-yl)-3-oxoisoindolin-5-yl)methyl (4-(trifluoromethoxy)phenyl)carbamate], the DC50 at GSPT1 [1] (setting [4]) lay within 30 to 300 nM. Moreover, the IC50 in assay [2] was above 1700 nM.

Take `O=C1CCC(N2Cc3ccc(COC(=O)Nc4cc(-c5ccccc5)ccn4)cc3C2=O)C(=O)N1` (centres unmarked) [Compound 155, (2-(2,6-dioxopiperidin-3-yl)-3-oxoisoindolin-5-yl)methyl (4-phenylpyridin-2-yl)carbamate]: on GSPT1 [1] (setting [4]), the DC50 is 30 to 300 nM. The IC50 in assay [2] is above 1700 nM.

Regarding `C[C@H]1CCCN1c1ccc(NC(=O)OCc2ccc3c(c2)C(=O)N(C2CCC(=O)NC2=O)C3)cn1` (stereo partly drawn) [Compound 156, (2-(2,6-dioxopiperidin-3-yl)-3-oxoisoindolin-5-yl)methyl (6-((S)-2-methylpyrrolidin-1-yl)pyridin-3-yl)carbamate], the DC50 on GSPT1 [1] (setting [4]) is below 30 nM; on GSPT1 [1] (setting [5]), at most 30 nM. Besides, the IC50 in assay [2] is below 500 nM.

Regarding `C[C@@H]1CCCN1c1ccc(NC(=O)OCc2ccc3c(c2)C(=O)N(C2CCC(=O)NC2=O)C3)cn1` (some centres unmarked) [Compound 157], the values for the DC50 on GSPT1 [1] (setting [4]) and on GSPT1 [1] (setting [5]) were below 30 nM and at most 30 nM, respectively. Also, the IC50 in assay [2] is below 500 nM.

On to `O=C1CCC(N2Cc3ccc(COC(=O)Nc4cc(Cl)ccc4F)cc3C2=O)C(=O)N1` (centres unmarked) [Compound 163, (2-(2,6-dioxopiperidin-3-yl)-3-oxoisoindolin-5-yl)methyl (5-chloro-2-fluorophenyl)carbamate], for which the DC50 on GSPT1 [3] (CAL-51 cells, 6 h) was above 300 nM.

Turning to `O=C1CCC(N2Cc3ccc(COC(=O)Nc4ccc(C5CCC5)cc4F)cc3C2=O)C(=O)N1` (centres unmarked) [Compound 164, (2-(2,6-dioxopiperidin-3-yl)-3-oxoisoindolin-5-yl)methyl (4-cyclobutyl-2-fluorophenyl)carbamate], on GSPT1 [3] (CAL-51 cells, 6 h), the DC50 is above 300 nM.

Consider `Cc1cc(F)c(NC(=O)OCc2ccc3c(c2)C(=O)N(C2CCC(=O)NC2=O)C3)c(F)c1` (centres unmarked) [Compound 166, (2-(2,6-dioxopiperidin-3-yl)-3-oxoisoindolin-5-yl)methyl (2,6-difluoro-4-methylphenyl)carbamate], for which the DC50 at GSPT1 [3] (CAL-51 cells, 6 h) was above 300 nM.

For `O=C1CCC(N2Cc3ccc(COC(=O)NC4CN(c5ccccc5)C4)cc3C2=O)C(=O)N1` (centres unmarked) [Compound 167], the DC50 on GSPT1 [3] (CAL-51 cells, 6 h) is above 300 nM.

Consider `O=C1CCC(N2Cc3ccc(COC(=O)NC4CN(Cc5ccccc5)C4)cc3C2=O)C(=O)N1` (centres unmarked) [Compound 168], for which the DC50 at GSPT1 [3] (CAL-51 cells, 6 h) is above 300 nM.

Turning to `O=C1CCC(N2Cc3ccc(COC(=O)Nc4cccc(OC(F)(F)F)c4F)cc3C2=O)C(=O)N1` (centres unmarked) [Compound 169], the DC50 on GSPT1 [3] (CAL-51 cells, 6 h) fell in the range of 30 to 300 nM.

On to `CC(C)(C)c1cccc(NC(=O)OCc2ccc3c(c2)C(=O)N(C2CCC(=O)NC2=O)C3)n1` (centres unmarked) [Compound 170, (2-(2,6-dioxopiperidin-3-yl)-3-oxoisoindolin-5-yl)methyl (6-(tert-butyl)pyridin-2-yl)carbamate], for which the DC50 at GSPT1 [3] (CAL-51 cells, 6 h) fell in the range of 30 to 300 nM.

In the case of `O=C1CCC(N2Cc3ccc(COC(=O)Nc4cccc5c4OCC5)cc3C2=O)C(=O)N1` (centres unmarked) [Compound 173], the DC50 on GSPT1 [3] (CAL-51 cells, 6 h) is above 300 nM.

Turning to `O=C1CCC(N2Cc3ccc(COC(=O)NC45CC(c6ccccc6F)(C4)C5)cc3C2=O)C(=O)N1` (centres unmarked) [Compound 174, (2-(2,6-dioxopiperidin-3-yl)-3-oxoisoindolin-5-yl)methyl (3-(2-fluorophenyl)bicyclo[1.1.1]pentan-1-yl) carbamate], the DC50 at GSPT1 [3] (CAL-51 cells, 6 h) was below 30 nM.

Regarding `Cc1cc(NC(=O)OCc2ccc3c(c2)C(=O)N(C2CCC(=O)NC2=O)C3)cc(Cl)c1C#N` (centres unmarked) [Compound 177, (2-(2,6-diox opiperidin-3-yl)-3-oxoisoindolin-5-yl)methyl(3-chloro-4-cyano-5-methylphenyl)carbamate], the DC50 on GSPT1 [3] is 30 to 300 nM.

As for `Cc1ccc(NC(=O)OCc2ccc3c(c2)C(=O)N(C2CCC(=O)NC2=O)C3)c(F)c1Cl` (centres unmarked) [Compound 179, (2-(2,6-dioxopiperidin-3-yl)-3-oxoisoindolin-5-yl) methyl (3-chloro-2-fluoro-4-methylphenyl)carbamate], the DC50 on GSPT1 [3] (CAL-51 cells, 6 h) is below 30 nM.

As for `Cc1cc2c(c(NC(=O)OCc3ccc4c(c3)C(=O)N(C3CCC(=O)NC3=O)C4)c1)OCC2` (centres unmarked) [Compound 182], the DC50 at GSPT1 [3] (CAL-51 cells, 6 h) was above 300 nM.

As to `Cc1ccc(NC(=O)OCc2ccc3c(c2)C(=O)N(C2CCC(=O)NC2=O)C3)nc1Cl` (centres unmarked) [Compound 183, (2-(2,6-dioxopiperidin-3-yl)-3-oxoisoindolin-5-yl)methyl (6-chloro-5-methylpyridin-2-yl)carbamate], the DC50 on GSPT1 [3] (CAL-51 cells, 6 h) fell in the range of 30 to 300 nM.

For `CC(C)(C)[C@H]1C[C@@H](NC(=O)OCc2ccc3c(c2)C(=O)N(C2CCC(=O)NC2=O)C3)C1` (stereo partly drawn) [Compound 184, cis-(2-(2,6-dioxopiperidin-3-yl)-3-oxoisoindolin-5-yl)methyl ((1s,3s)-3-(tert-butyl)cyclobutyl)carbamate], on GSPT1 [3] (CAL-51 cells, 6 h), the DC50 is above 300 nM.

Consider `CC(C)(C)[C@H]1C[C@H](NC(=O)OCc2ccc3c(c2)C(=O)N(C2CCC(=O)NC2=O)C3)C1` (stereo partly drawn) [Compound 185, trans-(2-(2,6-dioxopiperidin-3-yl)-3-oxoisoindolin-5-yl)methyl ((1s,3s)-3-(tert-butyl)cyclobutyl)carbamate], for which, on GSPT1 [3] (CAL-51 cells, 6 h), the DC50 was above 300 nM.

On to `Cc1cc(NC(=O)OCc2ccc3c(c2)C(=O)N(C2CCC(=O)NC2=O)C3)cc(C#N)c1C` (centres unmarked) [Compound 186], for which the 50% degradation concentration (DC50) at GSPT1 [3] (CAL-51 cells, 6 h) is below 30 nM.

As for `O=C1CCC(N2Cc3ccc(COC(=O)Nc4cc(Cl)cc5c4OCC5)cc3C2=O)C(=O)N1` (centres unmarked) [Compound 189], the DC50 at GSPT1 [3] (CAL-51 cells, 6 h) was 30 to 300 nM.

Regarding `O=C1CCC(N2Cc3ccc(COC(=O)NC45CC(F)(C4)C5)cc3C2=O)C(=O)N1` (centres unmarked) [Compound 190], on GSPT1 [3] (CAL-51 cells, 6 h), the DC50 is above 300 nM.

Consider `O=C1CCC(N2Cc3ccc(COC(=O)Nc4ccc(F)c(OC(F)F)c4F)cc3C2=O)C(=O)N1` (centres unmarked) [Compound 191, (2-(2,6-dioxopiperidin-3-yl)-3-oxoisoindolin-5-yl)methyl (3-(difluoromethoxy)-2,4-difluorophenyl) carbamate], for which the DC50 at GSPT1 [3] (CAL-51 cells, 6 h) lay in the range of 30 to 300 nM.

Regarding `C[C@@H]1CCCN1c1ccc(NC(=O)OCc2ccc3c(c2)C(=O)N(C2CCC(=O)NC2=O)C3)nc1` (some centres unmarked) [Compound 192], on GSPT1 [3] (CAL-51 cells, 6 h), the DC50 fell in the range of 30 to 300 nM.

For `O=C1CCC(N2Cc3ccc(COC(=O)NC45CC(C4)C5)cc3C2=O)C(=O)N1` (centres unmarked) [Compound 193, (2-(2,6-dioxopiperidin-3-yl)-3-oxoisoindolin-5-yl)methyl bicyclo[1.1.1]pentan-1-ylcarbamate], the DC50 on GSPT1 [3] (CAL-51 cells, 6 h) was above 300 nM.

Turning to `Cc1cc(NC(=O)OCc2ccc3c(c2)C(=O)N(C2CCC(=O)NC2=O)C3)ncc1N1CCCC1` (centres unmarked) [Compound 194, (2-(2,6-dioxopiperidin-3-yl)-3-oxoisoindolin-5-yl)methyl (4-methyl-5-(pyrrolidin-1-yl)pyridin-2-yl) carbamate], at GSPT1 [3] (CAL-51 cells, 6 h), the DC50 is above 300 nM.

On to `CC(C)(O)c1ccc(NC(=O)OCc2ccc3c(c2)C(=O)N(C2CCC(=O)NC2=O)C3)cc1` (centres unmarked) [Compound 195, (2-(2,6-dioxopiperidin-3-yl)-3-oxoisoindolin-5-yl)methyl (4-(2-hydroxypropan-2-yl)phenyl)carbamate], for which the DC50 on GSPT1 [3] (CAL-51 cells, 6 h) is above 300 nM.

Regarding `Cc1cc(F)c(NC(=O)OCc2ccc3c(c2)C(=O)N(C2CCC(=O)NC2=O)C3)cc1Br` (centres unmarked) [Compound 197, (2-(2,6-dioxopiperidin-3-yl)-3-oxoisoindolin-5-yl)methyl (5-bromo-2-fluoro-4-methylphenyl)carbamate], the DC50 at GSPT1 [3] (CAL-51 cells, 6 h) lay within 30 to 300 nM.

For the molecule `O=C1CCC(N2Cc3ccc(COC(=O)NC45CC(N6CCCCC6)(C4)C5)cc3C2=O)C(=O)N1` (centres unmarked) [Compound 198], the DC50 on GSPT1 [3] (CAL-51 cells, 6 h) was above 300 nM.
